Patent US10750743B2, “Pyridazinone herbicides” (E.I. DU PONT DE NEMOURS AND COMPANY, priority 2015, dated 2020)

Assays:
Assay type in all cases: in vivo
[1] = test system: ryegrass, It. (Italian ryegrass, Lolium multiflorum); experiment: Test A preemergence, directed soil spray, visual injury rating; details: 0 is no effect, 100 is complete control
Source text: (§1) Seeds of plant species selected from barnyardgrass (Echinochloa crus-galli), kochia (Kochia scoparia), ragweed (common ragweed, Ambrosia elatior), ryegrass, It. (Italian ryegrass, Lolium multiflorum), foxtail, giant (giant foxtail, Setaria faberii), and pigweed (Amaranthus retroflexus), were planted into a blend of loam soil and sand and treated preemergence with a directed soil spray using test chemicals formulated in a non-phytotoxic solvent mixture which included a surfactant.
(§2) At the same time, plants selected from these weed species and also wheat (Triticum aestivum), corn (Zea mays), blackgrass (Alopecurus myosuroides), and galium (catchweed bedstraw, Galium aparine), were planted in pots containing the same blend of loam soil and sand and treated with postemergence applications of test chemicals formulated in the same manner Plants ranged in height from 2 to 10 cm and were in the one- to two-leaf stage for the postemergence treatment. Treated plants and untreated controls were maintained in a greenhouse for approximately 10 d, after which time all treated plants were compared to untreated controls and visually evaluated for injury. Plant response ratings, summarized in Table A, are based on a 0 to 100 scale where 0 is no effect and 100 is complete control. A dash (-) response means no test result.

kochia (Kochia scoparia) [2] = experiment: as above; details: 0 is no effect, 100 is complete control
Source text: as §1, §2

[3] = test system: ragweed (common ragweed, Ambrosia elatior); experiment: as above; details: 0 is no effect, 100 is complete control
Source text: as §1, §2

[4] = test system: foxtail, giant (giant foxtail, Setaria faberii); experiment: as above; details: 0 is no effect, 100 is complete control
Source text: as §1, §2

[5] = test system: barnyardgrass (Echinochloa crus-galli); experiment: as above; details: 0 is no effect, 100 is complete control
Source text: as §1, §2

[6] = test system: pigweed (Amaranthus retroflexus); experiment: as above; details: 0 is no effect, 100 is complete control
Source text: as §1, §2

[7] = test system: galium (catchweed bedstraw, Galium aparine); experiment: Test A postemergence application, visual injury rating; details: 0 to 100 scale, 0 no effect, 100 complete control
Source text: as §1, §2

[8] = test system: ryegrass, It. (Italian ryegrass, Lolium multiflorum); experiment: as above; details: 0 to 100 scale, 0 no effect, 100 complete control
Source text: as §1, §2

kochia (Kochia scoparia) [9] = experiment: as above; details: 0 to 100 scale, 0 no effect, 100 complete control
Source text: as §1, §2

[10] = test system: wheat (Triticum aestivum); experiment: as above; details: 0 to 100 scale, 0 no effect, 100 complete control
Source text: as §1, §2

corn (Zea mays) = experiment: as above; details: 0 to 100 scale, 0 no effect, 100 complete control
Source text: as §1, §2

[11] = test system: ragweed (common ragweed, Ambrosia elatior); experiment: as above; details: 0 to 100 scale, 0 no effect, 100 complete control
Source text: as §1, §2

[12] = test system: foxtail, giant (giant foxtail, Setaria faberii); experiment: as above; details: 0 to 100 scale, 0 no effect, 100 complete control
Source text: as §1, §2

[13] = test system: blackgrass (Alopecurus myosuroides); experiment: as above; details: 0 to 100 scale, 0 no effect, 100 complete control
Source text: as §1, §2

[14] = test system: barnyardgrass (Echinochloa crus-galli); experiment: as above; details: 0 to 100 scale, 0 no effect, 100 complete control
Source text: as §1, §2

[15] = test system: pigweed (Amaranthus retroflexus); experiment: as above; details: 0 to 100 scale, 0 no effect, 100 complete control
Source text: as §1, §2

Structure (SMILES)	Plant response rating (0 to 100 scale), Ryegrass, It. ([1]; 125 g ai/ha)	Plant response rating (0 to 100 scale), Ryegrass, It. ([1]; 500 g ai/ha)	Plant response rating (0 to 100 scale), Kochia (kochia (Kochia scoparia) [2]; 125 g ai/ha)	Plant response rating (0 to 100 scale), Kochia (kochia (Kochia scoparia) [2]; 500 g ai/ha)	Plant response rating (0 to 100 scale), Foxtail, Giant ([4]; 125 g ai/ha)	Plant response rating (0 to 100 scale), Foxtail, Giant ([4]; 500 g ai/ha)	Plant response rating (0 to 100 scale), Barnyardgrass ([5]; 125 g ai/ha)	Plant response rating (0 to 100 scale), Barnyardgrass ([5]; 500 g ai/ha)	Plant response rating (0 to 100 scale), Pigweed ([6]; 125 g ai/ha)	Plant response rating (0 to 100 scale), Pigweed ([6]; 500 g ai/ha)	Galium plant response rating ([7]; 125 g ai/ha)	Galium plant response rating ([7]; 500 g ai/ha)	Ryegrass, It. plant response rating ([8]; 125 g ai/ha)	Ryegrass, It. plant response rating ([8]; 500 g ai/ha)	Kochia plant response rating (kochia (Kochia scoparia) [9]; 125 g ai/ha)	Kochia plant response rating (kochia (Kochia scoparia) [9]; 500 g ai/ha)	Wheat plant response rating ([10]; 125 g ai/ha)	Wheat plant response rating ([10]; 500 g ai/ha)	Corn plant response rating (corn (Zea mays); 125 g ai/ha)	Corn plant response rating (corn (Zea mays); 500 g ai/ha)	further results
CCOC(=O)Oc1c(C)nn(C)c(=O)c1-c1c(C)sc2ncc(C)cc12 [Compound 2]	30	100	0	60	0	20	0	20	0	80	40	80	30	90	30	90	0	20	0	0	Plant response rating (0 to 100 scale), Ragweed ([3]; 125 g ai/ha): 0; Plant response rating (0 to 100 scale), Ragweed ([3]; 500 g ai/ha): 20; Ragweed plant response rating ([11]; 125 g ai/ha): 20; Ragweed plant response rating ([11]; 500 g ai/ha): 50; Foxtail, Giant plant response rating ([12]; 125 g ai/ha): 0; Foxtail, Giant plant response rating ([12]; 500 g ai/ha): 20; Blackgrass plant response rating ([13]; 125 g ai/ha): 20; Blackgrass plant response rating ([13]; 500 g ai/ha): 40; Barnyardgrass plant response rating ([14]; 125 g ai/ha): 0; Barnyardgrass plant response rating ([14]; 500 g ai/ha): 20; Pigweed plant response rating ([15]; 125 g ai/ha): 70; Pigweed plant response rating ([15]; 500 g ai/ha): 90
Cc1cnc2sc(C)c(-c3c(O)c(C)nn(C)c3=O)c2c1 [Compound 3]	30	70	0	20	0	10	0	10	40	80	30	80	20	80	30	90	0	20	0	0	Plant response rating (0 to 100 scale), Ragweed ([3]; 125 g ai/ha): 0; Plant response rating (0 to 100 scale), Ragweed ([3]; 500 g ai/ha): 40; Ragweed plant response rating ([11]; 125 g ai/ha): 20; Ragweed plant response rating ([11]; 500 g ai/ha): 50; Foxtail, Giant plant response rating ([12]; 125 g ai/ha): 0; Foxtail, Giant plant response rating ([12]; 500 g ai/ha): 30; Blackgrass plant response rating ([13]; 125 g ai/ha): 20; Blackgrass plant response rating ([13]; 500 g ai/ha): 40; Barnyardgrass plant response rating ([14]; 125 g ai/ha): 0; Barnyardgrass plant response rating ([14]; 500 g ai/ha): 30; Pigweed plant response rating ([15]; 125 g ai/ha): 80; Pigweed plant response rating ([15]; 500 g ai/ha): 90
CCC(=O)Oc1c(C)nn(C)c(=O)c1-c1cccc2sccc12 [Compound 4]	40	100	0	60	0	20	0	20	40	70	70	90	80	100	0	20	0	0	0	0	Plant response rating (0 to 100 scale), Ragweed ([3]; 125 g ai/ha): 0; Plant response rating (0 to 100 scale), Ragweed ([3]; 500 g ai/ha): 20; Ragweed plant response rating ([11]; 125 g ai/ha): 0; Ragweed plant response rating ([11]; 500 g ai/ha): 40; Foxtail, Giant plant response rating ([12]; 125 g ai/ha): 0; Foxtail, Giant plant response rating ([12]; 500 g ai/ha): 20; Blackgrass plant response rating ([13]; 125 g ai/ha): 20; Blackgrass plant response rating ([13]; 500 g ai/ha): 30; Barnyardgrass plant response rating ([14]; 125 g ai/ha): 0; Barnyardgrass plant response rating ([14]; 500 g ai/ha): 20; Pigweed plant response rating ([15]; 125 g ai/ha): 20; Pigweed plant response rating ([15]; 500 g ai/ha): 30
CCOC(=O)Oc1c(C)nn(C)c(=O)c1-c1cccc2sccc12 [Compound 5]	80	100	10	30	0	40	0	40	20	100	30	80	70	90	0	20	0	20	0	0	Plant response rating (0 to 100 scale), Ragweed ([3]; 125 g ai/ha): 0; Plant response rating (0 to 100 scale), Ragweed ([3]; 500 g ai/ha): 20; Ragweed plant response rating ([11]; 125 g ai/ha): 0; Ragweed plant response rating ([11]; 500 g ai/ha): 20; Foxtail, Giant plant response rating ([12]; 125 g ai/ha): 0; Foxtail, Giant plant response rating ([12]; 500 g ai/ha): 20; Blackgrass plant response rating ([13]; 125 g ai/ha): 30; Blackgrass plant response rating ([13]; 500 g ai/ha): 60; Barnyardgrass plant response rating ([14]; 125 g ai/ha): 0; Barnyardgrass plant response rating ([14]; 500 g ai/ha): 20; Pigweed plant response rating ([15]; 125 g ai/ha): 0; Pigweed plant response rating ([15]; 500 g ai/ha): 20
Cc1cnc2sc(C)c(-c3c(OC(=O)OC(C)C)c(C)nn(C)c3=O)c2c1 [Compound 6]	0	50	0	50	20	0	0	0	0	70	50	70	20	60	30	60	0	0	0	0	Plant response rating (0 to 100 scale), Ragweed ([3]; 125 g ai/ha): 0; Ragweed plant response rating ([11]; 125 g ai/ha): 10; Ragweed plant response rating ([11]; 500 g ai/ha): 30; Foxtail, Giant plant response rating ([12]; 125 g ai/ha): 20; Foxtail, Giant plant response rating ([12]; 500 g ai/ha): 40; Blackgrass plant response rating ([13]; 125 g ai/ha): 0; Blackgrass plant response rating ([13]; 500 g ai/ha): 20; Barnyardgrass plant response rating ([14]; 125 g ai/ha): 0; Barnyardgrass plant response rating ([14]; 500 g ai/ha): 10; Pigweed plant response rating ([15]; 125 g ai/ha): 20; Pigweed plant response rating ([15]; 500 g ai/ha): 80
Cc1cnc2sc(C)c(-c3c(OC(=O)C4CC4)c(C)nn(C)c3=O)c2c1 [Compound 9]	30	70	0	30	0	40	0	0	0	30	50	60	30	60	40	50	0	0	0	0	Plant response rating (0 to 100 scale), Ragweed ([3]; 500 g ai/ha): 30; Ragweed plant response rating ([11]; 125 g ai/ha): 10; Ragweed plant response rating ([11]; 500 g ai/ha): 30; Foxtail, Giant plant response rating ([12]; 125 g ai/ha): 0; Foxtail, Giant plant response rating ([12]; 500 g ai/ha): 40; Blackgrass plant response rating ([13]; 125 g ai/ha): 0; Blackgrass plant response rating ([13]; 500 g ai/ha): 20; Barnyardgrass plant response rating ([14]; 125 g ai/ha): 0; Barnyardgrass plant response rating ([14]; 500 g ai/ha): 20; Pigweed plant response rating ([15]; 125 g ai/ha): 50; Pigweed plant response rating ([15]; 500 g ai/ha): 80
